# Experiments:
# [1] = system: GRO, GROα, IL-6, IL-8, MCP-1 to 3 and RANTES; test: Cytokine antibody array of conditioned media of skin equivalents (SASP); type: cell-based, human; settings: skin equivalents from either type of senescent NHDFs, BX-795 100 nM, versus vehicle-treated; FIGS. 11A-11B
# Description: (§1) PDK1 inhibition inhibits SASP in skin equivalents. 3D skin models (skin equivalents) were prepared from young NHDFs (PDL 12) or senescent NHDFs induced into senescence by doxorubicin and IGF-1 or repeated plating (replicative senescence, PDL 57), and were exposed to DMSO or BX795. The treatment concentrations are as follows: doxorubicin ([…]), IGF-1 (100 ng/mL), BX-795 (100 nM).
# Mean ± SD (n = 3), ***P < 0.001 compared to DMSO control senescent cells by one-way analysis of variance.
# [2] = system: 3D skin models (skin equivalents); test: 3D skin models (skin equivalents) from senescent NHDFs, histology and immunohistochemistry; type: cell-based, human; settings: BX-795 100 nM, FIGS. 10A-10B
# Description: as §1, with “3D” for “PDK1 inhibition inhibits SASP in skin equivalents. 3D”, “57)” for “57),”
# The indicated proteins were detected by immunohistochemistry. The results are from three representative experiments. Scale bar = 50 µm.
# Paraffin samples were dewaxed in xylene and rehydrated through a descending ethanol to water series (3 minutes per solution). […] The sections were then incubated with water/1% H2O2 for 30 minutes to block endogenous peroxidase, rinsed with water and PBS/0.05% Tween 20 for 5 minutes, and incubated with PBS/10% goat serum (Dako, Glostrup, Denmark) for 20 minutes before exposure to the following antibodies overnight at 4 °C; Primary antibodies are: anti-KRT 10 (Biolegend, San Diego, CA), anti-FLG (Abcam), anti-MMP-1(Abcam) and anti-Ki67 (Abcam). […]
# Finally, the sections were dehydrated in graded ethanol, cleared in xylene and mounted in Cytoseal 60 (Thermo Scientific, Waltham, MA). […] Tissue sections were incubated with COL17A1 (Abcam) and laminin-5 (Santa Cruz Biotechnology) in Dako fluorescence mounting medium (Dako) at 4 °C overnight. […]
# [3] = system: Human epidermis models (EpiDerm™ EPI-201); test: Improvement of skin barrier in 3D organotypic skin epidermis (immunostaining of barrier markers); type: cell-based; settings: old donor epidermis model, 3 µM for 4 days
# Description: Human epidermis models (EpiDerm™ EPI-201; […] The human epidermis model derived from the old donor was treated with the kaempferol tetrasaccharide represented by Chemical Formula 1 at 3 µM for 4 days. Paraffin blocks were prepared after fixing with 10% neutral buffered formalin.
# After reacting with anti-KRT 10 (Biolegend, San Diego, CA), anti-FLG (Novus Biologicals, Centennial CO, USA), anti-Involucrin and anti-Ki67 (Abcam) antibodies, the expression of the antibodies was analyzed using a microscope. Specifically, the epidermal tissue derived from the young donor (Young) and the epidermal tissue derived from the old donor (Old) were treated with the test substance and then stained with the antibodies described above. The result is shown in FIG. 4, FIGS. 5A-5B and FIGS. 6A-6C. FIGS. 5A-5B and FIGS. 6A-6C show the result of quantifying the result of FIG. 4.
# [4] = system: senescence marker SA-beta-Gal; test: Expression of senescence marker SA-beta gal in senescent skin cells (cellular senescence assay kit); type: cell-based, human; settings: senescent NHDF (passage 37), 3 µM for 7 days; control 78± 5.2
# Description: Normal human dermal fibroblasts (NHDF; Lonza, Switzerland) were cultured in Dulbecco's modified Eagle's medium (DMEM, GIBCO 1210-0038) containing 10% fetal bovine serum, in a 5% CO2 incubator at 37 °C. Cells at passages 6-9 were denoted as young cells, and they were subcultured by 1:5 subculturing until passage 37 to obtain senescent dermal fibroblasts. The senescent skin cells of (1) were treated with DMSO, the compounds repressed by Chemical Formula 1, 2, 3, 4, 5, 6, 7 and 8, kaempferol 3-O-β-rutinoside (Chemical Formula 9) or kaempferol 7-O-β-D-glucopyranoside (Chemical Formula 10) at 3 µM for 7 days. [drawing 30] [drawing 31] On day 8, the cells were washed with PBS and stained with a fixative and a stain provided together with a cellular senescence assay kit (Cell Biolabs, Inc., San Diego, CA, USA) at 37 °C for 16 hours. On the next day, after washing with PBS and applying a 20% glycerol solution, the number of cells stained green was counted and the degree of expression of the senescence marker SA-beta-Gal was evaluated.
# MMP-1 = MMP-1 ELISA assay in UVB-irradiated HDF cells; type: cell-based, human; settings: UVB 15 mJ/cm^2, 2 µM or 3 µM, 48 hours, compared to Chemical Formulas 5 and 7 or retinoic acid (RA), FIG. 3
# Description: HDF cells were seeded onto a 24-well plate at a concentration of 2.5x10^4 cells/well and were culture for 24 hours under a cell culturing condition. Then, the cells were cultured for 48 hours after treating with a test substance diluted in FBS-free DMEM. After washing with Dulbecco's phosphate-buffered saline (DPBS) and irradiating UVB (15 mJ/cm^2), the medium was replaced with the test substance (2 µM or 3 µM) diluted in DMEM and the cells were cultured for 48 hours. Then, the supernatant was recovered and the amount of MMP-1 was measured using a human total MMP-1 ELISA kit (R&D Systems).
Compound,degree of expression of the senescence marker SA-beta-Gal (number of cells stained green) [4],effect of inhibiting MMP-1 expression (MMP-1),other results
O=C(NCCCNc1nc(Nc2cccc(NC(=O)N3CCCC3)c2)ncc1I)c1cccs1 [BX795],–,–,"GRO, GROα, IL-6, IL-8, MCP-1 to 3 and RANTES in the conditioned medium [1]: less; epidermal thickness in the skin equivalents ([2]; skin equivalents from senescence-induced NHDFs): preserved epidermal thickness; proliferation marker Ki-67 in the epidermis of the skin equivalents ([2]; skin equivalents from senescent NHDFs): markedly increased"
"C[C@@H]1O[C@@H](OC[C@H]2O[C@@H](Oc3c(-c4ccc(O)cc4)oc4cc(O)cc(O)c4c3=O)[C@H](O[C@@H]3OC[C@@H](O)[C@H](O)[C@H]3O)[C@@H](O)[C@H]2O)[C@H](O)[C@H](O[C@@H]2OC[C@@H](O)[C@H](O)[C@H]2O)[C@H]1O [Chemical Formula 1, kaempferol-3-O-β-D-xylopyranosyl-(1→3)-O-α-L-rhamnopyranosyl-(1→6)-O-β-D-xylopyranosyl-(1→2)-O-β-D-galactopyranoside]",38 ± 10.4,superior effect of inhibiting MMP-1 expression,"epidermal thickness ([3]; FIG. 5A): recovered to levels comparable to those of the young epidermal tissue; expression of the regeneration marker (KI67) ([3]; FIG. 5B): recovered to levels comparable to those of the young epidermal tissue; barrier function (KRT10, FLG, INV) ([3]; FIGS. 6A-6C): recovered to levels comparable to those of the young epidermal tissue"
"C[C@@H]1O[C@@H](OC[C@H]2O[C@@H](Oc3c(-c4ccc(O)cc4)oc4cc(O)cc(O)c4c3=O)[C@H](O[C@@H]3OC[C@@H](O)[C@H](O)[C@H]3O)[C@@H](O)[C@@H]2O)[C@H](O)[C@H](O[C@@H]2OC[C@@H](O)[C@H](O)[C@H]2O)[C@H]1O [Chemical Formula 2, kaempferol-3-O-β-D-xylopyranosyl-(1→3)-O-α-L-rhamnopyranosyl-(1→6)-O-β-D-xylopyranosyl-(1→2)-O-β-D-glucopyranoside]",40 ± 10.4,–,–
"C[C@@H]1O[C@@H](OC[C@H]2O[C@@H](Oc3c(-c4ccc(O)cc4)oc4cc(O)cc(O)c4c3=O)[C@H](O[C@@H]3O[C@H](CO)[C@@H](O)[C@H](O)[C@H]3O)[C@@H](O)[C@H]2O)[C@H](O)[C@H](O[C@@H]2OC[C@@H](O)[C@H](O)[C@H]2O)[C@H]1O [Chemical Formula 3, kaempferol-3-O-β-D-xylopyranosyl-(1→3)-O-α-L-rhamnopyranosyl-(1→6)-O-β-D-glucopyranosyl-(1→2)-O-β-D-galactopyranoside]",42 ± 9.7,superior effect of inhibiting MMP-1 expression,–
"C[C@@H]1O[C@@H](OC[C@H]2O[C@@H](Oc3c(-c4ccc(O)cc4)oc4cc(O)cc(O)c4c3=O)[C@H](O)[C@@H](O)[C@@H]2O)[C@H](O)[C@H](O)[C@H]1O [Kaempferol 3-O-β-rutinoside, kaempferol 3-O-β-rutinoside, reference compound]",81 ± 11.3,–,–
"O=c1c(O)c(-c2ccc(O)cc2)oc2cc(O[C@@H]3O[C@H](CO)[C@@H](O)[C@H](O)[C@H]3O)cc(O)c12 [Kaempferol 7-0-β-D-glucopyranoside, kaempferol 7-O-β-D-glucopyranoside, reference compound]",79± 9.9,–,–
O=c1c(O)c(-c2ccc(O)cc2)oc2cc(O)cc(O)c12 [Kaempferol],80 ± 12.1,–,–
kaempferol-3-O-β-D-xylopyranosyl-(1→3)-O-α-L-rhamnopyranosyl-(1→6)-O-β-D-glucopyranosyl-(1→2)-O-β-D-glucopyranoside [Chemical Formula 4],37 ± 9.1,superior effect of inhibiting MMP-1 expression,–
